Measurements reported in PMC5465288, “[^68Ga]/[^188Re] Complexed [CDTMP] Trans-1,2-Cyclohexyldinitrilotetraphosphonic Acid As a Theranostic Agent for Skeletal Metastases” (Frontiers in Medicine, 2017).

Assay: HAp (hydroxyapatite) binding study
Conditions: 20 mg synthetic HAp in 1 mL saline, 10 min incubation at ambient temperature
Experimental: To evaluate HAp binding, 20 mg of synthetic HAp was allowed to incubate in 1 mL of isotonic saline for 24 h. Labeled complex in a volume of 50 µL was then added, subjected to vortex for 10 s and incubated at ambient temperature for 10 min. After incubation, samples had been centrifuged, and the supernatant was removed. Hap fraction was washed twice with 0.5 mL saline, and all the washes were collected. Radioactivity was then checked in combined liquids and HAp fraction using gamma counter.

In the case of “[^68Ga]-trans-1,2-cyclohexyldinitrilo tetramethylene phosphonic acid [[^68Ga]-CDTMP]”, the “binding to HAp” value is reported as 89 ± 3%.
